The values that follow come from PubChem BioAssay (NCI).

Test in all cases: inhibition of tumour cell growth, NCI panel, 48 h
Assay [1] relates to MALME-3M melanoma.
The test system of assay [2] is HCT-116 colon.
For assay [3], the system named is HT29 colon.
Assay [4] deals with SNB-19 CNS.
In assay [5] the test system is ACHN renal.
Assay [6] deals with SF-295 CNS.
Assay [7] relates to NCI-H460 lung.
For assay [8], the system named is SF-539 CNS.
The subject of assay [9] is IGROV1 ovarian.
For assay [10], the system named is KM12 colon.

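Grown in 96-well plates, cells were treated for 48 hours with each compound at five concentrations. Insufficient inhibition: endpoint recorded as highest concentration tested. GI50 is the concentration that inhibits growth by half. TGI: concentration producing complete growth inhibition.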

`COc1cc(-c2nc3ccccc3s2)ccc1OCCCCOc1cc2c(cc1OC)C(=O)N1CCC[C@H]1C=N2`: the GI50 in [1] is 1.55 µM; in assay [2] it was 0.57 µM; in assay [3], 0.724 µM; in assay [4] it was 1.57 µM; in assay [5], 1.31 µM; in assay [6], 2.02 µM. Moreover, the GI50 was 1 µM in assay [7], 1.61 µM in [8] and 3.06 µM in assay [9]. Further, the TGI is 3.46 µM in [1]; 2.19 µM in [2]; 7.14 µM in assay [3]; 4.11 µM in assay [4]; 5.8 µM in assay [5]; 10.3 µM in assay [6]. The TGI came to 3.4 µM in assay [7], 3.22 µM in assay [8] and 12.7 µM in [9].
Turning to `C=C1C(=O)O[C@H]2[C@H]1CC/C(COC(=O)CCCCCC(=O)OC/C1=C/CC[C@@]3(C)O[C@H]3[C@H]3OC(=O)C(=C)[C@@H]3CC1)=C\CC[C@@]1(C)O[C@@H]21`, the GI50 in [1] is 2.09 µM; in assay [10], 2.17 µM; in assay [3] it was 1.97 µM; in assay [4], 4.09 µM; in assay [5], 1.4 µM; in assay [6], 4.09 µM. Besides, the GI50 in [7] is 3.21 µM; in [8], 1.67 µM; in assay [9], 2.51 µM. The TGI in assay [1] stood at 5.08 µM; in assay [10], 5.4 µM; in [3] it was 3.84 µM; in assay [4], 19.5 µM; in [5] it was 3.1 µM; in assay [6], 16.5 µM. Further, the TGI was 12.2 µM in [7], 3.58 µM in assay [8] and 9.32 µM in assay [9].
As to `CCCCC(SC(=S)N1CCCC1)C(=O)Nc1nc(CC(=O)OCC)cs1` (centres undefined), the GI50 in [1] was > 100 µM; in assay [10], 45.3 µM; in [2], 28.9 µM; in assay [3], 21.8 µM; in assay [4] it was 65.1 µM; in assay [5], 59.3 µM. The values for the GI50 in assay [6], in [8] and in assay [9] were 47.3 µM, 72.4 µM and 7.98 µM, respectively. The TGI in assay [1], in assay [10], in [2], in assay [3], in assay [4] and in assay [5] was > 100 µM throughout. For the same compound, the TGI in assay [6], in assay [8] and in assay [9] was > 100 µM in each case.
For `C/C(CC(=O)NCCc1ccccc1)=N\NS(=O)(=O)c1ccc(C)cc1`, the TGI in assay [1], in assay [10], in assay [2], in assay [3], in assay [5] and in assay [6] was > 100 µM throughout. Also, the TGI in [7], in [8] and in [9] was > 100 µM throughout.
Consider `C=CCn1c(=S)sc2c(C(=O)OCC)c3c(C)cc(C)cn3c2c1=O`, for which the TGI in assay [1], in assay [2], in [3], in assay [4], in assay [5] and in assay [6] was > 100 µM each time. Further, the TGI in assay [7], in assay [8] and in assay [9] was > 100 µM each time.
Turning to `C/C(CC(=O)Nc1cccc(Cl)c1C)=N\NC(N)=S`, the TGI in assay [1], in [10], in assay [2], in assay [3], in [6] and in assay [7] was > 100 µM in each case. Further, the TGI in [8] and in assay [9] was > 100 µM in each case.
For `ClC(Cl)=C(Cl)C1(Cl)CC1COCc1ccccc1` (centres undefined), the TGI was 43.7 µM in assay [1]; > 100 µM in assay [10]; 86.3 µM in assay [3]; > 100 µM in assay [4]; > 100 µM in assay [5]; 96.2 µM in assay [6]. Further, the TGI in assay [7], in assay [8] and in [9] was > 100 µM each time.
As to `C[N+]1=c2c3cccc4cccc(c(=O)n2CC1)c43`, the TGI was 22.6 µM in [1]; 42.3 µM in assay [10]; 17.3 µM in [2]; 64.4 µM in assay [3]; > 100 µM in assay [5]; 56.1 µM in assay [6]. Also, the TGI was 28.2 µM in assay [7], 32.2 µM in assay [8] and 60.5 µM in assay [9].
Regarding `COc1ccccc1/C=C1\COc2ccc(-c3ccccc3)cc2C1=O`, the GI50 in [1] is 3.81 µM; in assay [10] it was 1.93 µM; in assay [2], 2.98 µM; in assay [4] it was 4.2 µM; in assay [5], 3.86 µM; in assay [6] it was 4 µM. Moreover, the results for the GI50 in [7], in assay [8] and in assay [9] were 2.1 µM, 2.61 µM and 4.69 µM, respectively. The TGI in assay [1] is 40.4 µM; in assay [10], 5.55 µM; in [2], 12 µM; in assay [4], > 100 µM; in assay [5], 26 µM; in [6], 85.4 µM. The TGI was 4.62 µM in [7], 6.44 µM in assay [8] and > 100 µM in [9].
Consider `[N-]=[N+]=NC(c1cn(C2CC(O)C(CO)O2)c(=O)[nH]c1=O)C(Cl)Br` (centres undefined), for which the TGI in assay [1], in assay [10], in assay [2], in [3], in [4] and in [5] was > 100 µM throughout. Moreover, the TGI in assay [6], in assay [7] and in [8] was > 100 µM in each case.
In the case of `C=C1CC(CC)(CCN2C(=O)c3ccccc3C2=O)OC1=O` (centres undefined), the TGI in assay [1] is 27.3 µM; in assay [10], 45.1 µM; in assay [2] it was 25.4 µM; in assay [3] it was 37.3 µM; in assay [5] it was 28.6 µM; in assay [6], > 100 µM. The TGI in assay [7] was > 100 µM; in assay [8], 46.6 µM; in assay [9], > 100 µM.
